Structures are written as SMILES. Converted amounts (≈) assume the structure as drawn. Counter-ions that a name gives are not always drawn.

One test has as its system Pseudomonas aeruginosa AJ 2116. Put plainly: Minimum Inhibitory Concentration (MIC) against Pseudomonas aeruginosa AJ 2116 in culture. It is filed as cell-based.
Conditions: not given
An excerpt:
Comparative Minimun Inhibitory Concentrations (MIC) (the minimum concentration of the compound in micrograms per milliliter required to inhibit the growth of the test organism in a culture) obtained using Pseudomonas aeruginosa AJ 2116 as the test organism, are presented in Table 2.
Regarding `CC(=O)OCC1=C(C(=O)O)N2C(=O)[C@@H](NC(=O)[C@H](NC(=O)c3[nH]cnc3C(=O)O)c3ccccc3)C2SC1` (stereo partly drawn) [Example 3a, 7-β-[D(-)-α-(4-carboxyimidazole-5-carboxamido)phenylacetamido]cephalosporanic acid], the “MIC (minimum concentration of the compound required to inhibit the growth of the test organism in a culture)” value was determined as 50 µg/mL.

The test is the same for the next values; noted with them: AJ2116, read-out: MIC (minimum concentration of the compound required to inhibit the growth of the test organism in a culture).
As for `CC1(C)S[C@@H]2[C@H](NC(=O)[C@H](N)c3ccccc3)C(=O)N2[C@H]1C(=O)O` [Ampicillin, reference compound], the MIC is over 500 µg/mL.
For `CC1(C)S[C@@H]2[C@H](NC(=O)C(C(=O)O)c3ccccc3)C(=O)N2[C@H]1C(=O)O` (stereo partly drawn) [Carbenicillin, reference compound], the MIC came to 100 µg/mL (≈ 264 µM).
`CC1(C)S[C@@H]2[C@H](NC(=O)[C@H](NC(=O)c3nc[nH]c3C(=O)O)c3ccccc3)C(=O)N2[C@H]1C(=O)O` [Example 3b, D-α-(4-carboxyimidazole-5-carboxamido)benzylpenicillin]: the MIC came out at 12.5 µg/mL (≈ 25.6 µM).
On to `CC1(C)S[C@@H]2[C@H](NC(=O)[C@H](NC(=O)c3nc[nH]c3C(=O)O)c3ccc(O)cc3)C(=O)N2[C@H]1C(=O)O` [Example 3c, D-α-(4-carboximidazole-5-carboxamido)-p-hydroxybenzylpenicillin monohydrate], for which the MIC worked out at 12.5 µg/mL.
With `CC(=O)OCC1=C(C(=O)O)N2C(=O)[C@@H](NC(=O)[C@H](NC(=O)c3nc[nH]c3C(=O)O)c3ccc(O)cc3)[C@H]2SC1` [Example 3d, 7-β-[D(-)-α-(4-carboxyimidazole-5-carboxamido)-p-hydroxyphenylacetamido]cephalosporanic acid], the MIC stood at 50 µg/mL (≈ 89.4 µM).
With `Cn1nnnc1SCC1=C(C(=O)O)N2C(=O)[C@@H](NC(=O)[C@H](NC(=O)c3nc[nH]c3C(=O)O)c3ccccc3)[C@H]2SC1` [Example 4, 7-β-[D-(-)-α-(4-carboxyimidazole-5-carboxamido)phenylacetamido]-3-[[(1-methyl-1H-tetrazol-5-yl)thio]methyl]-3-cephem-4-carboxylic acid monohydrate], the MIC was found to be 50 µg/mL.
On to `O=C([O-])C1=C(C[n+]2ccc(CCS(=O)(=O)O)cc2)CS[C@@H]2[C@H](NC(=O)[C@H](NC(=O)c3nc[nH]c3C(=O)O)c3ccccc3)C(=O)N12` [Example 5, 7-β-[D-(-)-α-(4-carboxyimidazole-5-carboxamido)phenylacetamido]-3-(4-α-sulphoethylpyridiniummethyl-3-cephem-4-carboxylic acid disodium salt trihydrate], for which the MIC was found to be 12.5 µg/mL.
Regarding `O=C(O)Cc1ccc[n+](CC2=C(C(=O)[O-])N3C(=O)[C@@H](NC(=O)[C@H](NC(=O)c4nc[nH]c4C(=O)O)c4ccccc4)[C@H]3SC2)c1` [Example 6, disodium salt], the MIC turned out to be 12.5 µg/mL.

Values taken from patent US4297279A, “Imidazoledicarboxylic acid derivative” (Ajinomoto Co., Inc., priority 1979, dated 1981).
